Chromatographic logP data for nine compounds are collected here from patent publication US7629294B2, “Pyrazolopyrimidines” (Bayer CropScience LP, priority 2004, dated 2009).

Data set [1] in a line: logP (HPLC).
A short description of data set [2]: physchem.

One may read the chromatographic logP as lipophilicity estimated from chromatographic retention. A low value points to lower lipophilicity. Compound `CCOP(=O)(OCC)c1cnn2c(NC(C)C(C)(C)C)c(-c3ccc(F)cc3Cl)c(Cl)nc12` (stereo not drawn) [Example XXIII, diethyl {5-chloro-6-(2-chloro-4-fluorophenyl)-7-[(1,2,2-trimethylpropyl)-amino]pyrazolo[1,5-a]pyrimidin-3-yl}phosphonate] displayed a chromatographic logP in data set [1] of 4.48.

In turn, `Cc1ccsc1-c1c(Cl)nc2c(-c3ncco3)cnn2c1NC(C)C(C)C` (stereo not drawn) [Example XXVII, [5-Chloro-6-(3-methylthiophen-2-yl)-3-oxazol-2-ylpyrazolo[1,5-α]pyrimidin-7-yl](1,2-dimethyl-propyl)amine] displayed a chromatographic logP in data set [2] (logPs) of 4.3.

In turn, `CSc1cnn2c(N3CCC(C)CC3)c(-c3ccc(F)cc3Cl)c(Cl)nc12` [Example I, 5-chloro-6-(2-chloro-4-fluorophenyl)-7-(4-methylpiperidin-1-yl)-3-methylmercapto-pyrazolo [2,3-a]pyrimidine] gave a chromatographic logP in data set [2] (logPs) of 5.73.

In data set [2] (logP), `CCC(C)c1c(Cl)nc2c(C(=O)O)cnn2c1N[C@@H](C)C(C)C` (stereo partly drawn) [Example XIV, 5-chloro-6-(sec-butyl)-7-[(S)-3-methyl-2-butylamino]pyrazolo[1,5-a]pyrimidine-3-carboxylic acid] came in with a chromatographic logP of 3.52.

For the compound `CCC(C)c1c(Cl)nc2c(C(=O)OC)cnn2c1N[C@@H](C)C(F)(F)F` (stereo partly drawn) [methyl 5-chloro-6-(sec-butyl)-7-[(S)-3-trifluoroisopropylamino]pyrazolo[1,5-a]pyrimidine-3-carboxylate], the chromatographic logP in data set [2] (logP) turned out to be 3.76.

For the compound `COC(=O)c1cnn2c(NC(C)C(C)C)c(-c3sccc3C)c(OC)nc12` (stereo not drawn) [methyl 7-(1,2-dimethylpropylamino)-5-methoxy-6-(3-methylthiophen-2-yl)pyrazolo[1,5-a]-pyrimidine-3-carboxylate], the chromatographic logP in data set [2] (logPs) turned out to be 4.6.

On to `CCOP(=O)(O)c1cnn2c(NC(C)C(C)(C)C)c(-c3ccc(F)cc3Cl)c(Cl)nc12` (stereo not drawn) [Example XXIV, ethyl hydrogen {5-chloro-6-(2-chloro-4-fluorophenyl)-7-[(1,2,2-trimethylpropyl)-amino]pyrazolo[1,5-a]pyrimidin-3-yl}phosphonate], for which, in data set [1], the chromatographic logP turned out to be 3.01.

The compound `COC(=O)c1cnn2c(N[C@@H](C)C(F)(F)F)c(C3CCCC3)c(Cl)nc12` [methyl 5-chloro-6-cyclopentyl-7-[(S)-3-trifluoroisopropylamino]pyrazolo[1,5-a]pyrimidine-3-carboxylate] came in with a chromatographic logP in data set [2] (logP) of 3.89.

As for `Cc1nnc(-c2cnn3c(NC(C)C(C)C)c(-c4ccc(F)cc4Cl)c(Cl)nc23)[nH]1` (stereo not drawn) [XXXVII, [5-chloro-6-(2-chloro-4-fluorophenyl)-3-(5-methyl-[1,3,4]triazol-2-yl)pyrazolo[1,5-a]pyrimidin-7-yl](1,2-dimethylpropyl)-amine], the chromatographic logP in data set [2] (logPs) came to 2.91.
